Measured values reported in the supplement of paper PMC10307832.

Experiments:
Assay in all cases: relative viability (nuclei count vs DMSO), 5 days (fraction); higher = more cells survive
BAY61-3606 + Foretinib = compound: COC1=C(C=C(C=C1)C2=CC3=NC=CN3C(=N2)NC4=C(C=CC=N4)C(=O)N)OC [BAY61-3606] + COc1cc2c(Oc3ccc(NC(=O)C4(C(=O)Nc5ccc(F)cc5)CC4)cc3F)ccnc2cc1OCCCN1CCOCC1 [Foretinib] (partner 0.25 µM)
Summary of the method: (§1)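 Five library-drug doses in √10 steps were combined with a fixed anchor-drug dose, or a single drug was given alone, by pin tool to lung cancer cell lines in 1536-well plates the day after seeding. Nuclei were stained and counted after 5 days. Relative viability is the nuclei count in treated wells over that in vehicle wells, taken as the median of duplicate plates.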

BAY61-3606 + Navitoclax = compound: COC1=C(C=C(C=C1)C2=CC3=NC=CN3C(=N2)NC4=C(C=CC=N4)C(=O)N)OC [BAY61-3606] + CC1(C)CCC(c2ccc(Cl)cc2)=C(CN2CCN(c3ccc(C(=O)NS(=O)(=O)c4ccc(N[C@H](CCN5CCOCC5)CSc5ccccc5)c(S(=O)(=O)C(F)(F)F)c4)cc3)CC2)C1 [Navitoclax] (partner 0.5 µM)
Summary of the method: as §1

Doxorubicin = compound: COc1cccc2c1C(=O)c1c(O)c3c(c(O)c1C2=O)C[C@@](O)(C(=O)CO)C[C@@H]3O[C@H]1C[C@H](N)[C@H](O)[C@H](C)O1 [Doxorubicin]
Summary of the method: (§2)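 Lung cancer cell lines in 1536-well plates were kept overnight at 37 °C, then pinned with five library-drug doses (not always all listed) spaced by √10 on vehicle-anchored plates. After 5 days without medium change, cells were fixed, permeabilised and Hoechst-stained in one step, imaged at 4×, and nuclei were counted with MetaXpress. Viability is treated-well nuclei divided by vehicle-well nuclei, taken as the median over plates. Plates passed only with control CV below 25% and at least one doubling.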

BAY61-3606 = compound: COC1=C(C=C(C=C1)C2=CC3=NC=CN3C(=N2)NC4=C(C=CC=N4)C(=O)N)OC [BAY61-3606]
Summary of the method: as §2

Cell Line | relative viability (BAY61-3606 + Foretinib; first compound 0.02 µM) | relative viability (BAY61-3606 + Foretinib; first compound 0.06325 µM) | relative viability (BAY61-3606 + Foretinib; first compound 0.2 µM) | relative viability (BAY61-3606 + Foretinib; first compound 0.6325 µM) | relative viability (BAY61-3606 + Foretinib; first compound 2 µM) | relative viability (BAY61-3606 + Navitoclax; first compound 0.02 µM) | relative viability (BAY61-3606 + Navitoclax; first compound 0.06325 µM) | relative viability (BAY61-3606 + Navitoclax; first compound 0.2 µM) | relative viability (BAY61-3606 + Navitoclax; first compound 0.6325 µM) | relative viability (BAY61-3606 + Navitoclax; first compound 2 µM) | relative viability (Doxorubicin; 0.001 µM) | relative viability (Doxorubicin; 0.003162 µM) | relative viability (Doxorubicin; 0.01 µM) | relative viability (Doxorubicin; 0.03162 µM) | relative viability (Doxorubicin; 0.1 µM) | relative viability (BAY61-3606; 0.02 µM) | relative viability (BAY61-3606; 0.06325 µM) | relative viability (BAY61-3606; 0.2 µM) | relative viability (BAY61-3606; 0.6325 µM) | relative viability (BAY61-3606; 2 µM)
HCC-78 | 0.519 | 0.516 | 0.568 | 0.545 | 0.578 | 0.915 | 0.652 | 0.905 | 0.802 | 0.801 | 1 | 0.999 | 0.851 | 0.955 | 0.954 | 1.04 | 0.934 | 0.973 | 0.985 | 1.08
HOP-62 | 1.05 | 1.04 | 1.1 | 1.13 | 0.815 | 0.981 | 1.08 | 0.981 | 1.08 | 0.676 | 0.937 | 1.04 | 1 | 1.04 | 1.02 | 0.969 | 1 | 0.954 | 0.956 | 0.964
NCI-H1623 | 0.841 | 0.919 | 0.896 | 0.864 | 0.846 |  |  |  |  |  | 0.934 | 0.968 | 0.965 | 0.947 | 0.992 | 0.892 | 0.891 | 0.911 | 0.953 | 0.927
NCI-H3122 | 0.952 | 1.07 | 0.94 | 0.962 | 0.969 | 0.975 | 0.962 | 1.05 | 1 | 0.987 | 0.946 | 1.01 | 0.908 | 0.876 | 0.92 | 1.02 | 1 | 0.985 | 1.01 | 0.961
NCI-H1666 | 1.06 | 1.02 | 0.987 | 0.991 | 0.918 | 1.17 |  | 1.06 | 0.965 | 1.02 | 0.902 | 0.996 | 0.814 | 0.548 | 0.525 | 1.14 | 0.996 | 0.958 | 1.04 | 1.01
HARA | 0.926 | 0.76 | 0.832 | 0.887 | 0.631 | 1.2 | 1.12 | 1.16 | 1.1 | 1.02 | 0.983 | 1.12 | 1.07 | 0.945 | 0.955 | 1.03 | 0.927 | 0.945 | 0.953 | 0.866
NCI-H1563 | 1.03 | 0.99 | 0.893 | 0.931 | 0.847 |  |  |  |  |  | 0.939 | 0.939 | 0.747 | 0.698 | 0.683 | 1.16 | 0.993 | 1.01 | 0.994 | 0.814
ABC-1 | 1.19 | 0.973 | 0.971 | 1.11 | 0.907 |  |  |  |  |  | 0.943 | 1.01 | 0.811 | 0.414 | 0.307 | 1.04 | 0.942 | 0.986 | 1.03 | 0.854
NCI-H522 |  |  |  |  |  |  |  |  |  |  | 0.741 | 0.938 | 0.988 | 0.838 | 0.894 | 0.961 | 0.907 | 0.953 | 0.954 | 0.933
SW 900 | 0.826 | 0.949 | 0.571 | 1.11 | 0.586 |  |  |  |  |  | 0.671 | 0.992 | 0.774 | 0.665 | 0.404 | 0.895 | 0.762 | 0.678 | 0.937 | 0.813
LCLC-103H | 0.81 | 0.83 | 0.832 | 0.701 | 0.681 |  |  |  |  |  | 0.966 | 1.04 | 0.981 | 1.02 | 0.957 | 1.07 | 0.992 | 0.993 | 1.03 | 0.987
HCC-44 |  |  |  |  |  | 0.935 | 0.903 | 1.01 | 1.13 | 0.816 | 0.998 | 0.992 | 0.941 | 1.03 | 0.894 | 0.947 | 0.989 | 1.03 | 1.03 | 1.05
NCI-H1648 |  |  |  |  |  |  |  |  |  |  | 0.898 | 1.07 | 0.719 | 0.864 | 0.882 | 0.832 | 0.89 | 1.16 | 0.74 | 0.804
NCI-H2342 | 1.03 | 1.05 | 1.02 | 1.22 | 0.957 |  |  |  |  |  | 0.938 | 1.03 | 0.929 | 0.763 | 0.877 | 0.966 | 1.02 | 0.908 | 0.966 | 1.15
NCI-H358 | 0.773 | 0.457 | 0.652 | 0.637 | 0.286 |  |  |  |  |  | 0.975 | 1.04 | 0.761 | 0.235 | 0.199 | 0.954 | 0.947 | 0.87 | 0.864 | 0.369
NCI-H650 | 1.1 | 1.02 | 1.02 | 1.09 | 0.8 |  |  |  |  |  | 1 | 0.86 | 0.92 | 0.83 | 0.741 | 1 | 0.802 | 0.818 | 0.942 | 0.745
NCI-H661 | 1.06 | 1.05 | 0.99 | 1.02 | 0.941 |  |  |  |  |  | 1.01 | 1.06 | 0.957 | 0.853 | 0.634 | 1.02 | 0.993 | 0.991 | 0.963 | 0.976
NCI-H1792 |  |  |  |  |  | 0.663 | 0.637 | 0.646 | 0.596 | 0.696 |  | 0.885 | 0.964 | 0.903 | 0.747 | 0.982 | 0.853 | 1 | 0.885 | 1.03
